In US20070054884A1 (priority 2005, published 2007):
Values after ≈ are worked out from the molar mass of the structure shown.

Experiments:
B. cereus = assay: Minimum Inhibitory Concentration (MIC), broth dilution method; type: cell-based; conditions: Bacillus cereus, read-out: MIC B. cereus
Protocol: (§1) Minimum Inhibitory Concentration (MIC), Broth Dilution Method:
(§2) The compounds of the present invention were tested against selected Gram positive and Gram negative organisms using standard microtitration techniques well known to those skilled in the art. Cultures of bacteria were initially applied by streaking a loopful onto agar plates under the appropriate conditions. For example, bacterial stocks are streaked for isolation of single colonies onto chocolate agar and then incubated for 18 hours at 35-37° C. in a 5% CO2 incubator. Five to ten colonies were picked from the chocolate agar plate for subculture to Brain-Heart infusion (BHI) broth, Mueller Hinton broth, or BHI containing 4% serum, and incubated under the appropriate conditions. The ability of the test compound to act as an antimicrobial was determined by the ability of dilutions of the test substance to inhibit bacterial growth in vitro. The optical density of the culture of organisms in the presence of an active compound was compared to the optical density of the same organism grown without test compound. The activity of the compounds is described as either negative or the lowest concentration inhibiting growth (Minimum Inhibitory Concentration [MIC]).
(§3) The activity of selected compounds of the present invention against representative Gram positive and Gram negative bacteria are shown in the following Table 1.

S. aureus 29213 = assay: as above; type: cell-based; conditions: Staphylococcus aureus, 29213, read-out: MIC S. aureus 29213
Protocol: as §1, §2, §3

S. pneumoniae 11733 = assay: as above; type: cell-based; conditions: Streptococcus pneumoniae, 11733, read-out: MIC S. pneumoniae 11733
Protocol: as §1, §2, §3

B.anthracis V770-NR1-R = assay: microbe, parasite or virus in culture; type: cell-based; conditions: Bacillus anthracis, V770NR1R, read-out: MIC B.anthracis V770-NR1-R

SMILES	MIC (B. cereus) [µg/mL]	MIC (S. aureus 29213) [µg/mL]	MIC (S. pneumoniae 11733) [µg/mL]	MIC (B.anthracis V770-NR1-R) [µg/mL]	melting point [°C]
Oc1cc(Cl)c(-n2cnnn2)cc1Oc1ccc(Cl)cc1Cl [Example 32, 5-Chloro-2-(2,4-dichloro-phenoxy)-4-tetrazol-1-yl-phenol]	1300 (≈ 3.64 mM)	1600 (≈ 4.47 mM)	3100 (≈ 8.67 mM)	800 (≈ 2.24 mM)	147 to 148
CN1CCN(c2cc(Oc3ccc(Cl)cc3Cl)c(O)cc2Cl)CC1 [Example 2, 5-Chloro-2-(2,4-dichloro-phenoxy)-4-(4-methyl-piperazin-1-yl)-phenol]	> 25000	60 (≈ 0.155 mM)	250 (≈ 0.645 mM)	> 25000	–
Oc1cc(Cl)c(N2CCOCC2)cc1Oc1ccc(Cl)cc1Cl [Example 1, 5-Chloro-2-(2,4-dichlorophenoxy)-4-morpholin-4-yl-phenol]	800 (≈ 2.14 mM)	500 (≈ 1.33 mM)	1000 (≈ 2.67 mM)	1600 (≈ 4.27 mM)	187 to 188
CCOC(=O)NC(=S)Nc1ccc(O)c(Oc2ccccc2O)c1 [Example 9, 1-[4-Hydroxy-3-(2-hydroxy-phenoxy)-phenyl]-3-(ethylozycarbonyl)thiourea]	12500 (≈ 35.9 mM)	31300 (≈ 89.8 mM)	62500 (≈ 179 mM)	3100 (≈ 8.9 mM)	–
Cc1cc(O)c(Oc2ccccc2C#N)cc1-c1ccco1 [Example 28, 2-(5-Furan-2-yl-2-hydroxy-4-methyl-phenoxy)-benzonitrile]	1600 (≈ 5.49 mM)	2000 (≈ 6.87 mM)	500 (≈ 1.72 mM)	800 (≈ 2.75 mM)	–
O=C(O)c1cc(Oc2ccc(Cl)cc2Cl)c(O)cc1Cl	–	–	–	–	192 to 196
O=C(Nc1cc(Oc2ccc(Cl)cc2Cl)c(O)cc1Cl)c1ccco1 [Example 20, Furan-2-carboxylic acid [2-chloro-5-(2,4-dichloro-phenoxy)-4-hydroxy-phenyl]-amide]	> 25000	4000 (≈ 10 mM)	2000 (≈ 5.02 mM)	> 25000	–
CC(=O)Nc1nc(C)c(S(=O)(=O)Nc2cc(Oc3ccc(Cl)cc3Cl)c(O)cc2Cl)s1 [Example 23, N-{5-[2-Chloro-5-(2,4-dichloro-phenoxy)-4-hydroxy-phenylsulfamoyl]-4-methyl-thiazol-2-yl}-acetamide]	–	4000 (≈ 7.65 mM)	15700 (≈ 30 mM)	–	–
O=[N+]([O-])c1ccc(NC(=S)Nc2cc(Oc3ccc(Cl)cc3Cl)c(O)cc2Cl)cc1 [Example 13, 1-[2-Chloro-5-(2,4-dichloro-phenoxy)-4-hydroxy-phenyl]-3-(4-nitro-phenyl)-thiourea]	–	1000 (≈ 2.06 mM)	15600 (≈ 32.2 mM)	–	–
OB(O)c1cc(Oc2ccc(Cl)cc2Cl)c(O)cc1Cl [Example 6, 2-Chloro-5-(2,4-dichloro-phenoxy)-4-hydroxy-phenylboronic acid]	–	500 (≈ 1.5 mM)	–	–	180 to 183
Cc1cc(C(=O)Nc2cc(Oc3ccc(Cl)cc3Cl)c(O)cc2Cl)no1 [Example 22, 5-Methyl-isoxazole-3-carboxylic acid [2-chloro-5-(2,4-dichloro-phenoxy)-4-hydroxy-phenyl]-amide]	–	2000 (≈ 4.84 mM)	500 (≈ 1.21 mM)	–	–
N#Cc1cc(Cl)ccc1Oc1cc(N2CCOCC2)c(F)cc1O	–	–	–	–	149 to 151
Cc1cc(O)c(Oc2ccccc2C#N)cc1N1CCOCC1 [Example 31, 2-(2-Hydroxy-4-methyl-5-morpholin-4-yl-phenoxy)-benzonitrile]	3100 (≈ 9.99 mM)	7900 (≈ 25.5 mM)	4000 (≈ 12.9 mM)	6200 (≈ 20 mM)	–
N#Cc1ccccc1Oc1cc(-n2cccc2)ccc1O [Example 18, 2-(2-Hydroxy-5-pyrrol-1-yl-phenoxy)-benzonitrile]	> 25000	4000 (≈ 14.5 mM)	4000 (≈ 14.5 mM)	> 25000	–
CCOC(=O)c1nc(-c2cc(Oc3ccc(Cl)cc3Cl)c(O)cc2Cl)no1 [Example 35, 3-[2-Chloro-5-(2,4-dichloro-phenoxy)-4-hydroxy-phenyl][1,2,4]oxadiazole-5-carboxylic acid ethyl ester]	100 (≈ 0.233 mM)	200 (≈ 0.466 mM)	–	100 (≈ 0.233 mM)	130
N/C(=N/O)c1cc(Oc2ccc(Cl)cc2Cl)c(O)cc1Cl [Example 34, 2-Chloro-5-(2,4-dichloro-phenoxy)-4,N-dihydroxy-benzamidine]	100 (≈ 0.288 mM)	100 (≈ 0.288 mM)	–	200 (≈ 0.575 mM)	137
